Experimental data published in patent US10842776B2, “Hycanthone derivatives and Primaquine derivatives for use in the prevention and/or the treatment of disorders associated to gammaherpesvirus” (priority 2016, dated 2020).
Where a name gives a salt, the structure may show the parent alone.

Tests used:
[1] = tested on: caspase 3/7 activity in BC-3 cells; assay: Induction of caspase 3/7 activity (apoptosis); format: cell-based, human; conditions: 10 μM, 24 h
Procedure: Apoptosis induction was evaluated 24 h after the treatment started by measuring caspase 3/7 activity in treated- or untreated control BC-3 cells. […] DDTC is used as a positive inducer of caspase 3/7 activity in BC-3 cell lines (Matsuno et al., 2012, Int J Oncol 40: 1071-1078).
BC-3 cells (10000 cells/well) were incubated 24 h with a concentration of 10 μM of Primaquine diphosphate (Sigma), Hycanthone (Sigma), or Diethyldithiocarbamate (DDTC) (Sigma), and then lysed and a 3/7 Reagent (DEVD) is added. Lysed cells release caspase-3 or -7, which cleave the DEVD substrate from the aminoluciferin. Finally, the oxidation of the luciferin by luciferase produces light, which is measured by a luminometer. The amount of light produced is proportional to the amount of caspase-3 or -7 activity. […] (DDTC) (Sigma) known to induce apoptosis in BC-3 cells via the inhibition of NF-κB is used as positive control.

[2] = tested on: MRC-5, primary cutaneous fibroblasts, primary keratinocytes, Hela P4; conditions: human, 48 h, 10 μM
Procedure: (§1) HHV8 infected cell line (BC3), HHV8-non infected cell lines (MRC5, HeLa P4), and HHV8 non infected primary cells (human keratinocytes, human cutaneous fibroblasts, B-type lymphocytes CD19+) were grown in vitro and treated by either Primaquine diphosphate, Hycanthone, Paclitaxel or Doxorubicin hydrochloride at a concentration of 10 μM. Cell viability was evaluated by ATP quantitation 48 h after the treatment started.
(§2) The effect of Primaquine diphosphate (Sigma), Hycanthone (Sigma), Paclitaxel (Sigma), and Doxorubicin (Sigma) were evaluated on relevant primary cells and cell lines that are or not infected by HHV-8.
• BC-3: cell line established from pleural effusion from a human immunodeficiency virus (HIV) negative patient diagnosed with primary effusion lymphoma (PEL). BC-3 cell line is HHV8 infected but not infected for Epstein-Barr virus (EBV) as well as for herpes simplex virus 1 &2 (HSV-1 & HSV-2) and cytomegalovirus (CMV) (ATCC), • MRC5: Cell line derived from normal lung tissue of a […] fetus (ATCC), • Primary cutaneous fibroblasts (Lonza ref CC 25 11), • Primary keratinocytes (Lonza ref 00 192 627), • HeLa: immortal cell line established from an adult human cervical cancer HVP-18 infected (NIH Reagent program), • Primary B-type lymphocytes CD19+: primary B cells positively selected using CD19 microbeads (Miltenyi).
(§3) Cells were treated in vitro with either Primaquine diphosphate (Sigma), Hycanthone (Sigma), Paclitaxel (Sigma), or Doxorubicin hydrochloride (Sigma) at a concentration of 10 μM. The viability of the cells was evaluated 48 h after the treatment started as previously described with the Kit CellTiter Glo (Promega).

[3] = tested on: BC-3 cells; assay: Cell growth inhibition; format: cell-based, human; conditions: 10 μM, D0 to D3, versus BC3 cells cultured in standard conditions
Procedure: Cell growth was measured every day from the day of treatment (DO) until 3 days after the treatment started (D3).
BC-3 cells were grown in RPMI-1640 GlutaMAX (Gibco) supplemented with 10% fetal bovine serum and antibiotics (amikacine and vancomycine) during 3 days. The number of cells per milliliter is measured at baseline, DO, D2 and D3. BC-3 were cultured with and without primaquine and Hycanthone.

[4] = tested on: phosphorylation of IκB (NF-κB pathway) in BC-3 PEL cell line; assay: IκB phosphorylation, western blot; format: cell-based, human; conditions: 10 μM, pre-treated for 6 and 12 h, BC-3 cells
Procedure: BC-3 cells were pre-treated for 6 h (A) and 12 h (B) with primaquine and hycanthone at 10 μM. DDTC was used as positive control. Whole-cell lysates were prepared as described in Materials and Methods of example F and used for p-IκB western blot analysis by using the appropriate antibodies. […] Treatment of BC-3 cells with DDTC (diethyldithiocarbamate) was carried out in the same conditions and served as a positive control.
BC-3, an HHV-8 positive lymphoblastic cell line (ATCC CRL-2277) and RAMOS, an human Burkitt's lymphoma cell line (ATCC CRL-1596), were routinely maintained in RPMI 1640 medium supplemented with 10% fetal heat-inactivated bovine serum (FBS), and antibiotics (Sigma Chemical Co., St. Louis, Mo.) in a 5% CO2 incubator at 37° C. To prepare whole cell extracts, the cells were washed with cold phosphate-buffered saline twice and lysed in lysis RIPA buffer containing 10 mM Tris-HCl, pH 8.0, 140 mM NaCl, 1% Triton X-100, 1 mM EDTA, 0.5 mM EGTA, 0.1% sodium deoxycholate, 0.1% SDS, supplemented with protease inhibitor mixture (1 mM PMSF, 10 mM β-glycerophosphate, 10 mM NaF, 1 mM sodium orthovanadate, 1 mM sodium pyrophosphate), (ThermoFisher Scientific) at 4° C. for 30 min. […] The supernatants were collected as whole cell extracts, and protein concentration was determined by the Lowry method. […]

[5] = tested on: BC-3 cells (HHV8 infected PEL cell line); assay: Cell viability (ATP quantitation, CellTiter Glo) of HHV8-infected cells; format: cell-based, human; conditions: 10 μM, 48 h, HHV8 infected BC-3 cells
Procedure: as §1, §2
• BC-3: cell line established from pleural effusion from a human immunodeficiency virus (HIV) negative patient diagnosed with primary effusion lymphoma (PEL). […]
as §3

[6] = tested on: BC-3 xenograft (PEL); assay: Primary Effusion Lymphoma xenograft model in immunodeficient NOD/SCID mice; format: in vivo
Procedure: (§4) Primaquine efficacy was evaluated using a mice model of immunodeficient NOD/SCID mice. […] Mice weight was measured at various times (D6, D13, D20 and D24) after the treatment started.
Note the large growth tumor in the abdomen of the mouse that received BC-3 xenograft (“BC-3”) but not treated by primaquine.
At baseline, mice are inoculated with a PEL cell line (BC-3) by intraperitoneal (i.p) injection. One day after injection of BC-3 cells, Primaquine is administered by intraperitoneal injection, and then 3 times a week during 8 weeks. Tumoral burden is evaluated by the measure of weight every weeks (References: T. Matsuno, 2012: Diethyldithiocarbamate induces apoptosis in HHV-8-infected primary effusion lymphoma cells via inhibition of the NF-κB pathway; K. A. Sarosiek, 2010: Efficacy of bortezomib in a direct xenograft model of primary effusion lymphoma; W. Wu, 2005: Inhibition of HHV-8/KSHV infected primary effusion lymphomas in NOD/SCID mice by azidothymidine and interferon).
The experiment was conducted on 24 NOD/SCID mice (4 groups of 6 mice) (Charles River laboratories): 1 group (Mock) without xenograft (no BC-3) and non-treated (no Primaquine), 1 group with xenograft (BC-3) and non-treated (no Primaquine), 1 group with xenograft (BC-3) and treated (Primaquine 12.5 mg/kg; (Sigma), 1 group without xenograft and treated (Primaquine 12.5 mg/kg; (Sigma). […]

[7] = Toxicity of Primaquine in NOD/SCID mice; format: in vivo; conditions: 12.5 mg/kg, after 24 days of treatment
Procedure: as §4
The experiment was conducted on 24 NOD/SCID mice (4 groups of 6 mice) (Charles River laboratories): 1 group (Mock) without xenograft (no BC-3) and non-treated (no Primaquine), 1 group with xenograft (BC-3) and non-treated (no Primaquine), 1 group with xenograft (BC-3) and treated (Primaquine 12.5 mg/kg; (Sigma), 1 group without xenograft and treated (Primaquine 12.5 mg/kg; (Sigma).
At the beginning of the experiments, the mice were 6 weeks old according to previous experiments conducted and available in the literature. Animals had 7 to 10 days of acclimatization before experiment. At baseline, 20.10^6 of BC3 cells in 500 μL of PBS were injected by i.p. in order to induce the development of PEL. Tumor growth is correlated with the total gain of weight. The consequent gain of weight should not exceed 150% of the baseline weight. For the group of mice […] by Primaquine, each mice received 1 i.p injection of 500 μL of PBS instead of BC-3 cells in order to evaluate the toxicity of Primaquine in mice.

| Structure (SMILES) | apoptosis (caspases 3/7 activation) versus non-treated control [1] | toxicity (cell death) in other cell types non infected by HHV8 [2] | cellular growth of BC3 [3] | phosphorylation of IκB [4] | cell death in BC-3 cells [5] | reduction of the median gain of weight ([6]; 12.5 mg/kg i.p. 3 times a week, D24, versus untreated mice with BC-3 xenograft) | growth tumor in the abdomen ([6]; 12.5 mg/kg, after 24 days of treatment, picture versus untreated BC-3 mouse) | toxicity in mice [7] |
| --- | --- | --- | --- | --- | --- | --- | --- | --- |
| CCN(CC)C(=S)S [DDTC, Diethyldithiocarbamate] | 4 times |  |  |  |  |  |  |  |
| CCN(CC)CCNc1ccc(CO)c2sc3ccccc3c(=O)c12 [Hycanthone] | at least as equivalent of that induced by DDTC | < 20% | inhibited cellular growth | dramatically reduced |  |  |  |  |
| CC(=O)O[C@H]1C(=O)[C@@]2(C)[C@H]([C@H](OC(=O)c3ccccc3)[C@]3(O)C[C@H](OC(=O)[C@H](O)[C@@H](NC(=O)c4ccccc4)c4ccccc4)C(C)=C1C3(C)C)[C@]1(OC(C)=O)CO[C@@H]1C[C@@H]2O [Paclitaxel] |  | > 20% |  |  | induced cell death |  |  |  |
| COc1cc(NC(C)CCCN)c2ncccc2c1 (stereo not drawn) [Primaquine diphosphate, Primaquine] | at least as equivalent of that induced by DDTC |  | inhibited cellular growth | dramatically reduced |  | 39.4% | reduced growth tumor | did not show any toxicity |
| COc1cccc2c1C(=O)c1c(O)c3c(c(O)c1C2=O)C[C@@](O)(C(=O)CO)C[C@@H]3O[C@H]1C[C@H](N)[C@H](O)[C@H](C)O1 [doxorubicin, Doxorubicin hydrochloride] |  | > 20% |  |  | induced cell death |  |  |  |
